Literature values, collected in patent US20040248214A1, “Novel method of assaying immune activity” (priority 2001, published 2004).

Assays:
NKT cells = details: cancer-bearing mouse

| Compound | activation of NKT cells (NKT cells) | disappearance of cancer (NKT cells) | metastasis (NKT cells) | side effect (IL-12 per se directly administered into living body) | anti-cancer effect (in vivo) |
| --- | --- | --- | --- | --- | --- |
| CCCCCCCCCCCCCCCCCCCCCCCCCC(=O)N[C@@H](CO[C@H]1O[C@H](CO)[C@H](O)[C@H](O)[C@H]1O)[C@H](O)[C@H](O)CCCCCCCCCCCCCC [α-galactosylceramide] | NKT cells were activated | disappearance of cancer was not noted | metastasis was suppressed | – | – |
| IL-12: interleukin 12 | – | – | – | results in a side effect | has an anti-cancer effect |
